Laboratory results: PubChem BioAssay AID1963986 (Molecular Pharmacology Branch, DTP, NCI, 2024)

Test system: 171881-019-R-J1-PDC tumor spheroid viability
Test: Anticancer human tumor 171881-019-R-J1-PDC patient-derived invasive breast carcinoma cell line growth inhibition [PI3K]
Settings: spheroids with HUVEC and MSC; for IC50: curve of first compound; for viability, T/C: stronger effect = lower value
Outline: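 Stroma-containing spheroids: tumor line, pooled-donor HUVEC, hMSC. Treatments: targeted agents with PI3K inhibitors. Dosing: clinically relevant, half-log spacing, 10 microM ceiling without known Cmax. Read-out: cell viability.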
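Also: spheroids exposed to compound for 7 days before viability read.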
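For viability, T/C in this document: 100% = DMSO vehicle-treated spheroids.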

## CNC(=O)c1ccc(N2C(=S)N(c3ccc(C#N)c(C(F)(F)F)c3)C(=O)C2(C)C)cc1F + COc1c(OCCCN2CCOCC2)ccc2c3n(c(=NC(=O)c4cnc(N)nc4)nc12)CCN3
Second compound 0.00316 µM
  IC50: > 10000 nM
Second compound 0.01 µM
  IC50: < 31.6 nM
Second compound 0.0316 µM
  IC50: < 31.6 nM
Second compound 0.1 µM
  IC50: < 31.6 nM
Second compound 0.316 µM
  IC50: < 31.6 nM
Second compound 1 µM
  IC50: < 31.6 nM
Second compound 0.00316 µM, first compound 0.0316 µM
  viability, T/C: 64%
Second compound 0.00316 µM, first compound 0.1 µM
  viability, T/C: 77.1%
Second compound 0.00316 µM, first compound 0.316 µM
  viability, T/C: 68.7%
Second compound 0.00316 µM, first compound 1 µM
  viability, T/C: 80.8%
Second compound 0.00316 µM, first compound 3.16 µM
  viability, T/C: 62.1%
Second compound 0.00316 µM, first compound 10 µM
  viability, T/C: 61.8%
Second compound 0.01 µM, first compound 0.0316 µM
  viability, T/C: 46.4%
Second compound 0.01 µM, first compound 0.1 µM
  viability, T/C: 48%
Second compound 0.01 µM, first compound 0.316 µM
  viability, T/C: 53.4%
Second compound 0.01 µM, first compound 1 µM
  viability, T/C: 50.3%
Second compound 0.01 µM, first compound 3.16 µM
  viability, T/C: 43.5%
Second compound 0.01 µM, first compound 10 µM
  viability, T/C: 43.5%
Second compound 0.0316 µM, first compound 0.0316 µM
  viability, T/C: 28%
Second compound 0.0316 µM, first compound 0.1 µM
  viability, T/C: 27.9%
Second compound 0.0316 µM, first compound 0.316 µM
  viability, T/C: 28%
Second compound 0.0316 µM, first compound 1 µM
  viability, T/C: 24.5%
Second compound 0.0316 µM, first compound 3.16 µM
  viability, T/C: 25.8%
Second compound 0.0316 µM, first compound 10 µM
  viability, T/C: 21.8%
Second compound 0.1 µM, first compound 0.0316 µM
  viability, T/C: 9.2%
Second compound 0.1 µM, first compound 0.1 µM
  viability, T/C: 7.58%
Second compound 0.1 µM, first compound 0.316 µM
  viability, T/C: 7.75%
Second compound 0.1 µM, first compound 1 µM
  viability, T/C: 8.13%
Second compound 0.1 µM, first compound 3.16 µM
  viability, T/C: 8.01%
Second compound 0.1 µM, first compound 10 µM
  viability, T/C: 7.49%
Second compound 0.316 µM, first compound 0.0316 µM
  viability, T/C: 2.27%
Second compound 0.316 µM, first compound 0.1 µM
  viability, T/C: 1.99%
Second compound 0.316 µM, first compound 0.316 µM
  viability, T/C: 2.25%
Second compound 0.316 µM, first compound 1 µM
  viability, T/C: 2.17%
Second compound 0.316 µM, first compound 3.16 µM
  viability, T/C: 2.25%
Second compound 0.316 µM, first compound 10 µM
  viability, T/C: 3.05%
Second compound 1 µM, first compound 0.0316 µM
  viability, T/C: 1.38%
Second compound 1 µM, first compound 0.1 µM
  viability, T/C: 1.14%
Second compound 1 µM, first compound 0.316 µM
  viability, T/C: 1.18%
Second compound 1 µM, first compound 1 µM
  viability, T/C: 1.73%
Second compound 1 µM, first compound 3.16 µM
  viability, T/C: 1.02%
Second compound 1 µM, first compound 10 µM
  viability, T/C: 1.64%

## Cn1cnc2c(F)c(Nc3ccc(Br)cc3Cl)c(C(=O)NOCCO)cc21 + COc1c(OCCCN2CCOCC2)ccc2c3n(c(=NC(=O)c4cnc(N)nc4)nc12)CCN3
Second compound 0.00316 µM
  IC50: 59 nM
Second compound 0.01 µM
  IC50: < 9.49 nM
Second compound 0.0316 µM
  IC50: < 9.49 nM
Second compound 0.1 µM
  IC50: < 9.49 nM
Second compound 0.316 µM
  IC50: < 9.49 nM
Second compound 1 µM
  IC50: < 9.49 nM
Second compound 0.00316 µM, first compound 0.00949 µM
  viability, T/C: 55.7%
Second compound 0.00316 µM, first compound 0.03 µM
  viability, T/C: 59.1%
Second compound 0.00316 µM, first compound 0.0949 µM
  viability, T/C: 43.1%
Second compound 0.00316 µM, first compound 0.3 µM
  viability, T/C: 37.1%
Second compound 0.00316 µM, first compound 0.949 µM
  viability, T/C: 21.8%
Second compound 0.00316 µM, first compound 3 µM
  viability, T/C: 9.21%
Second compound 0.01 µM, first compound 0.00949 µM
  viability, T/C: 39.5%
Second compound 0.01 µM, first compound 0.03 µM
  viability, T/C: 39.4%
Second compound 0.01 µM, first compound 0.0949 µM
  viability, T/C: 31.9%
Second compound 0.01 µM, first compound 0.3 µM
  viability, T/C: 24.2%
Second compound 0.01 µM, first compound 0.949 µM
  viability, T/C: 14%
Second compound 0.01 µM, first compound 3 µM
  viability, T/C: 4.9%
Second compound 0.0316 µM, first compound 0.00949 µM
  viability, T/C: 20.8%
Second compound 0.0316 µM, first compound 0.03 µM
  viability, T/C: 18.8%
Second compound 0.0316 µM, first compound 0.0949 µM
  viability, T/C: 16.9%
Second compound 0.0316 µM, first compound 0.3 µM
  viability, T/C: 10.5%
Second compound 0.0316 µM, first compound 0.949 µM
  viability, T/C: 6.05%
Second compound 0.0316 µM, first compound 3 µM
  viability, T/C: 1.88%
Second compound 0.1 µM, first compound 0.00949 µM
  viability, T/C: 6.77%
Second compound 0.1 µM, first compound 0.03 µM
  viability, T/C: 5.8%
Second compound 0.1 µM, first compound 0.0949 µM
  viability, T/C: 4.51%
Second compound 0.1 µM, first compound 0.3 µM
  viability, T/C: 2.81%
Second compound 0.1 µM, first compound 0.949 µM
  viability, T/C: 1.28%
Second compound 0.1 µM, first compound 3 µM
  viability, T/C: 0.8%
Second compound 0.316 µM, first compound 0.00949 µM
  viability, T/C: 1.87%
Second compound 0.316 µM, first compound 0.03 µM
  viability, T/C: 2.04%
Second compound 0.316 µM, first compound 0.0949 µM
  viability, T/C: 1.3%
Second compound 0.316 µM, first compound 0.3 µM
  viability, T/C: 0.68%
Second compound 0.316 µM, first compound 0.949 µM
  viability, T/C: 0.42%
Second compound 0.316 µM, first compound 3 µM
  viability, T/C: 0.28%
Second compound 1 µM, first compound 0.00949 µM
  viability, T/C: 0.82%
Second compound 1 µM, first compound 0.03 µM
  viability, T/C: 1.37%
Second compound 1 µM, first compound 0.0949 µM
  viability, T/C: 0.93%
Second compound 1 µM, first compound 0.3 µM
  viability, T/C: 1.07%
Second compound 1 µM, first compound 0.949 µM
  viability, T/C: 0.79%
Second compound 1 µM, first compound 3 µM
  viability, T/C: 0.56%
